The values below come from patent US5438118A, “HIV protease inhibitors” (SmithKline Beechman Corp., priority 1993, dated 1995).

The experiment deals with T1, rHIV protease (Human immunodeficiency virus type 1 group M subtype B, UniProt P03366).
T1 construct: the reaction is initiated with purified 0.01-1 mg HIV protease
Nature of the experiment: Inhibition of hydrolysis of a peptide substrate by rHIV protease (HPLC, Dixon analysis). It is filed as biochemical, HIV. Particulars: substrate Ac-Arg-Ala-Ser-Gln-Asn-Tyr-Pro-Val-Val-NH2, MENDT buffer pH 6.0, 37° C.; Ki from Dixon analysis. Here is the method: The data in the following table is representative of inhibition produced by these compounds.
A typical assay contains […] MENDT buffer (50 mM Mes (pH 6.0; 2-(N-morpholino)ethanesulfonic acid), 1 mM EDTA, 1 mM dithiothreitol, 200 mM NaCl, 0.1% Triton X100); 2, 3, or 6 mM N-acenyl-L-arginyl-L-alanyl-L-seryl-L-glutaminyl-L-asparaginyl-L-tyrosyl-L-prolyl-L-valyl-L-valinamide (Ac-Arg-Ala-Ser-Gln-Asn-Tyr-Pro-Val-Val-[…]NH2; Km =7 mM); and micromolar and sub-micromolar concentrations of synthetic compounds. Following incubation at 37° C. for several min, the reaction is initiated with purified 0.01-1 mg HIV protease. Reaction mixtures (37° C.) are quenched after 10-20 min with an equal volume of cold 0.6N trichloroacetic acid, and, following centrifugation to remove precipitated material, peptidolysis products are analyzed by reverse phase HPLC (Beckman Ultrasphere ODS, 4.5 mm×[…]; mobile phase; 5-20% acetonitrile/H2 O--0.1% TFA (15 min), 20% acetonitrile/H2 O--0.1% TFA (5 min) at 1.5 mL/min, detection at 220 nm. The elution positions of Ac-Arg-Ala-Ser-Gln-Asn-Tyr-Pro-Val-Val-NH2 (17-18 min) and Ac-Arg-Ala-Ser-Gln-Asn-Tyr (10-11 min) are confirmed with authentic material. Initial rates of Ac-Arg-Ala-Ser-Gln-Asn-Tyr formation are determined from integration of these peaks, and typically, the inhibitory properties of the synthetic compounds are determined from slope/intercept analysis of a plot of 1/v vs. [inhibitor] (Dixon analysis). Ki values resulting from this type of primary analysis are accurate for competitive inhibitors only, and under conditions in which the Michaelis constant of the substrate used is well determined.
What is called Ki is a measure of affinity in units of concentration, obtained from inhibition or displacement. Low readings indicate tighter binding, high ones weaker binding. For `COC(=O)[C@@H](NC(=O)[C@@H](NC(=O)C(C)N1CCC(C(C)NC(=O)[C@H](C)N)=CC(Cc2ccccc2)C1=O)C(C)C)C(C)C` (stereo partly drawn) [Example 1, 2-[3-benzyl-5-(1-alanylamino-ethyl)-2,3,6,7-tetrahydro-1H-2-oxo-azepin-1-yl]-1-oxo-propyl-valinyl-valine methyl ester], the Ki was found to be 100 µM. With `COC(=O)[C@@H](NC(=O)[C@@H](NC(=O)C(C)N1CCC(C(C)NC(=O)[C@H](C)N)=CC(Cc2ccccc2)C1)C(C)C)C(C)C` (stereo partly drawn) [Example 2, 2-[3-benzyl-5-(1-alanylamino-ethyl)-2,3,6,7-tetrahydro-1H-azepin-1-yl]-1-oxo-propyl-valinyl-valine methyl ester], the Ki was found to be 0.6 µM. Then `COC(=O)[C@@H](NC(=O)[C@@H](NC(=O)C(C)N1CCC(C(C)NC(=O)[C@@H](N)Cc2ccccc2)=CC(Cc2ccccc2)C1)C(C)C)C(C)C` (stereo partly drawn) [Example 3, 2-[3-benzyl-5-(1-(phenylalanyl)amino-ethyl)-2,3,6,7-tetrahydro-1H-azepin-1-yl]-1-oxo-propyl-valinyl-valine methyl ester], with 3.6 µM.
